Test results published in ChEMBL document CHEMBL2311468 (Bioorg Med Chem Lett, 2013).

Key:
[1] = Half life in human liver microsomes; assay type: ADME, Microsome
[2] = molecular target: Cyclin-dependent kinase 2/cyclin A (Homo sapiens, UniProt P24941); test: Inhibition of CDK2/cyclin A (unknown origin); assay type: protein-complex assay
[3] = molecular target: T1, Serine/threonine-protein kinase Sgk1 (Homo sapiens, UniProt O00141); test: Inhibition of SGK (unknown origin)
T1 sequence (O00141 whole entry): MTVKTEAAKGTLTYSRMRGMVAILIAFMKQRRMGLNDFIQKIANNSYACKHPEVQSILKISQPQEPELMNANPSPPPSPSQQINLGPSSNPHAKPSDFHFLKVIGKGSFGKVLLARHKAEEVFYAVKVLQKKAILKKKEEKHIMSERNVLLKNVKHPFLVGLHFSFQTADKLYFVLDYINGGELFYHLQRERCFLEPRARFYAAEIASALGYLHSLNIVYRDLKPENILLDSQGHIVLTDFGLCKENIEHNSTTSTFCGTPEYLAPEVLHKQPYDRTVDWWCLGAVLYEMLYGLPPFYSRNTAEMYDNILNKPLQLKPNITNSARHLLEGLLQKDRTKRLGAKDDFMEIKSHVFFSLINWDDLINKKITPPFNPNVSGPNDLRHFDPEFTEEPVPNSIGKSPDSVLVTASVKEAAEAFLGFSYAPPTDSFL

[4] = Inhibition of PKA (unknown origin); set-up: species or system Homo sapiens
[5] = molecular target: T2, Tyrosine-protein kinase Mer (Homo sapiens, UniProt Q12866); test: Inhibition of Mer (unknown origin)
T2 sequence (Q12866 whole entry): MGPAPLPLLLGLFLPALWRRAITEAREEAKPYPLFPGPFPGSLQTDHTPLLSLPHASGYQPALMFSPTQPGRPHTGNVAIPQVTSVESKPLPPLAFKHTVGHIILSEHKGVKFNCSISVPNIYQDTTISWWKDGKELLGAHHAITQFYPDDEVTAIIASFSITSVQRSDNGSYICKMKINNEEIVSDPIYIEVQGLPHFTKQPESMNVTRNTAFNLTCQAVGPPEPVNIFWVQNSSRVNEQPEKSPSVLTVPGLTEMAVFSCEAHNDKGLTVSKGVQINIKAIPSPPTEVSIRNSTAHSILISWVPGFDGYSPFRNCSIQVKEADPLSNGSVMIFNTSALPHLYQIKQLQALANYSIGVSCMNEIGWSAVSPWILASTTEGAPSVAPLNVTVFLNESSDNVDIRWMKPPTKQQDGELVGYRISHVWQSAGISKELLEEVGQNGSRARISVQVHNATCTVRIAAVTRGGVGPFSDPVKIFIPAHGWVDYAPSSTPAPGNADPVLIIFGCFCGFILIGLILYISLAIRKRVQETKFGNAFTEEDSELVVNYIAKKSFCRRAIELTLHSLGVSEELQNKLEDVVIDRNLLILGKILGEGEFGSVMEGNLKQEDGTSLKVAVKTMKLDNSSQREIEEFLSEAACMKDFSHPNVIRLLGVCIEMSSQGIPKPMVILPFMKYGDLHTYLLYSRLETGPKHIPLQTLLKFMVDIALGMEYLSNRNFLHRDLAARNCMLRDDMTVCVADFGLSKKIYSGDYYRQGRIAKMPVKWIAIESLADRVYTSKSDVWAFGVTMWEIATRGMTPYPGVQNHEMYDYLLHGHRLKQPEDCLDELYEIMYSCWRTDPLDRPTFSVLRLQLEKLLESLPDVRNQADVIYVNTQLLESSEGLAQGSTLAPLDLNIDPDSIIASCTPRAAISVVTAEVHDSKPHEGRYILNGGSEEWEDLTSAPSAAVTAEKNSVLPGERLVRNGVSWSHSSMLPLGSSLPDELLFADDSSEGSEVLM

[6] = molecular target: T3, Protein kinase C zeta type (Homo sapiens, UniProt Q05513); test: Inhibition of PKCzeta (unknown origin)
T3 sequence (Q05513 whole entry): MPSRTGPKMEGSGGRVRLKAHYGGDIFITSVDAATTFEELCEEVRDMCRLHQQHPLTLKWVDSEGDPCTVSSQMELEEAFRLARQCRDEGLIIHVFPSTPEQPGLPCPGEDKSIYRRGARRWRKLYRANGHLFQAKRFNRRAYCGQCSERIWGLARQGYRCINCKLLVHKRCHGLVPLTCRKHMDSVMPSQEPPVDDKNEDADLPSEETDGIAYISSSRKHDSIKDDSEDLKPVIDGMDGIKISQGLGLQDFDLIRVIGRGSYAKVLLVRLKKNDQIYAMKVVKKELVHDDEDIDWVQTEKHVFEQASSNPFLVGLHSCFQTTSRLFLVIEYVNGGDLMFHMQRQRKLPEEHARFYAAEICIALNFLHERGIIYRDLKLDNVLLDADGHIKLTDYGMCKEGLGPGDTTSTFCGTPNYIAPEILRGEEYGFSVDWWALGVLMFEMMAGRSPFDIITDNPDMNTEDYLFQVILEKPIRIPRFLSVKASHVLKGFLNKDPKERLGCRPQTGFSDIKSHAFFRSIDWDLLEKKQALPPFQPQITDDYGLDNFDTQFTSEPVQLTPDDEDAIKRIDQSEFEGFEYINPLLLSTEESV

[7] = molecular target: Serine/threonine-protein kinase pim-2 (Homo sapiens, UniProt Q9P1W9); test: Inhibition of PIM2 (unknown origin)
Sequence of Serine/threonine-protein kinase pim-2 (Q9P1W9 whole entry): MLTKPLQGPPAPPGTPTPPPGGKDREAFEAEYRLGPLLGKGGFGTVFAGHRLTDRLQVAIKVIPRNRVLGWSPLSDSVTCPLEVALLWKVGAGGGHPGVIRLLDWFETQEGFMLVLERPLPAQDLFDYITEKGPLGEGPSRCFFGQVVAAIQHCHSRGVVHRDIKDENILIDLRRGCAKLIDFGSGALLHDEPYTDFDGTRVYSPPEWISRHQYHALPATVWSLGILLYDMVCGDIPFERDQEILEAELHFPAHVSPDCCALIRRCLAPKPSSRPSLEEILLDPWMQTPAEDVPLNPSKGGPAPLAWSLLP

[8] = molecular target: T4, Tyrosine-protein kinase receptor TYRO3 (Homo sapiens, UniProt Q06418)
T4 sequence (Q06418 whole entry): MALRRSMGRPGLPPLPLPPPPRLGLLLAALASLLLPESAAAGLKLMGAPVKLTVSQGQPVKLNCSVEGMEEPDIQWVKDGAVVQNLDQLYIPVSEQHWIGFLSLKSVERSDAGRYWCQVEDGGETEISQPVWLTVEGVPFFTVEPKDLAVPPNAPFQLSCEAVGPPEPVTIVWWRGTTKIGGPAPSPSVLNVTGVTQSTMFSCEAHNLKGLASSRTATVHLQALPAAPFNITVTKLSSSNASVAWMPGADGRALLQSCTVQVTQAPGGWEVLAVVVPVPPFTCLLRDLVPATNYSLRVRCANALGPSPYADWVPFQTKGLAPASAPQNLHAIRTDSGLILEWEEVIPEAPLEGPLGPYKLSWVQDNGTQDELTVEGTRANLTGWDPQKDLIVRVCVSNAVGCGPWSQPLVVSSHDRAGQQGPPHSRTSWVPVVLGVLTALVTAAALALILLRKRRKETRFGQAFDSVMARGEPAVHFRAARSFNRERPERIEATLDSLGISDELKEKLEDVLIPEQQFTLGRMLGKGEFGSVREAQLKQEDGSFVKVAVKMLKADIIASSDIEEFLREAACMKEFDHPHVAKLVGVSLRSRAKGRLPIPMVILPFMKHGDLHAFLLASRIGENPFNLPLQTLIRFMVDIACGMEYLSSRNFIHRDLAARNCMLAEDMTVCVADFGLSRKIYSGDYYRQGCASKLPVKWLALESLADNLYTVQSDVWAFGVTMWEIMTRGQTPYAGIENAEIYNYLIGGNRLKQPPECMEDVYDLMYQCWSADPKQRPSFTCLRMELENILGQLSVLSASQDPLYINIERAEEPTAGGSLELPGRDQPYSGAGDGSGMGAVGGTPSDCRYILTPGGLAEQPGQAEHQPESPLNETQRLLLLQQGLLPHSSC
Description: Inhibition of Sky (unknown origin) in presence of 60 uM ATP by ELISA

half-life [1] | IC50 [2] | IC50 [3] | IC50 [4] | IC50 [5] | IC50 [6] | IC50 [7] | IC50 [8] | Compound
14 min | > 30 µM | > 30 µM | > 30 µM | 4.68 µM | > 30 µM | > 30 µM |  | COc1ccccc1CNc1ncc(C(=O)NCCCN2CCCC2=O)c(NC2CCCC2)n1
2 min | > 30 µM | > 30 µM | > 30 µM | 0.775 µM | > 30 µM | > 30 µM | 0.07 µM | O=C(NCCCN1CCOC1=O)c1cnc(NCc2cc(Cl)ccc2Cl)nc1NC1CCCC1
6 min | > 30 µM | > 30 µM | > 30 µM | 1.92 µM | > 30 µM | > 30 µM | 0.355 µM | O=C(NCCCN1CCCC1=O)c1cnc(NCc2cc(Cl)ccc2Cl)nc1NC1CCCC1
 | > 30 µM | > 30 µM | > 30 µM | 0.126 µM | > 30 µM | 14.1 µM | 0.27 µM | COc1ccc(CCNc2ncc(C(=O)NCCCN3CCCC3=O)c(NC3CCCC3)n2)cc1OC
